How the values were obtained:
[1] = tested on: aged non-growing Mtb; details: in vitro; ref [2]; cited from earlier work
[2] = tested on: MtMetAP1c; details: high-throughput screening; ref [2], [17]; cited from earlier work
[3] = Pharmacokinetic study, single IV bolus in adult male Sprague Dawley rats; assay type: in vivo; details: for AUC(0-inf) / C0 / clearance / half-life / Vd: male, Sprague Dawley, rat, plasma, iv
[4] = Stability of CLBQ14 in rat urine samples; assay type: in vitro ADME, Sprague Dawley rat
[5] = tested on: replicating Mtb; details: in vitro; ref [2]; cited from earlier work
[6] = tested on: MtMetAP1a; details: high-throughput screening; ref [2], [17]; cited from earlier work
[7] = Stability of CLBQ14 in rat plasma samples; assay type: in vitro ADME, Sprague Dawley rat
[8] = tested on: human MetAPs; details: in vitro; ref [2]; cited from earlier work
[9] = 2 mg/kg single IV bolus, male SD rats, n = 4, mean ± SD
[10] = 5 mg/kg single IV bolus, male SD rats, n = 3, mean ± SD
[11] = 10 mg/kg single IV bolus, male SD rats, n = 4, mean ± SD
[12] = Sprague Dawley, rat, Freeze-thaw cycle stability, mean recovery ± SD
[13] = Sprague Dawley, rat, Processed sample or auto-sampler stability, mean recovery ± SD, No IS
[14] = Sprague Dawley, rat, Processed sample or auto-sampler stability, mean recovery ± SD, With IS
[15] = Sprague Dawley, rat, Short-term (bench-top) stability, mean recovery ± SD

Oc1c(Br)cc(Cl)c2cccnc12 [CLBQ14, 7-bromo-5-chloroquinolin-8-ol]
Potency against aged non-growing Mtb [1]: increased potency | Inhibition of MtMetAP1c [2]: potent and selective inhibitor | A (coefficient of distributional phase) [3, 9]: 1.39 ± 0.27 mg/L | B (coefficient of terminal phase) [3, 9]: 0.05 ± 0.00 mg/L | A (coefficient of distributional phase) [3, 10]: 3.14 ± 0.42 mg/L | B (coefficient of terminal phase) [3, 10]: 0.09 ± 0.04 mg/L | A (coefficient of distributional phase) [3, 11]: 5.09 ± 1.36 mg/L | B (coefficient of terminal phase) [3, 11]: 0.17 ± 0.07 mg/L | Administered dose excreted unchanged in urine ([3]; after 24 hr, IV bolus, male SD rats): 0.19 ± 0.04% | AUC(0-inf) ([3]; 2 mg/kg): 1360 ± 60 ng·h/mL | C0 ([3]; 2 mg/kg): 1440 ± 270 ng/mL | clearance ([3]; 2 mg/kg, Cl (total clearance), 2 mg/kg single IV bolus, male SD rats, n = 4, mean ± SD): 24.7 mL/min/kg | half-life ([3]; 2 mg/kg, T1/2α (half-life of distributional phase), 2 mg/kg single IV bolus, male SD rats, n = 4, mean ± SD): 0.16 ± 0.04 h | half-life ([3]; 2 mg/kg, T1/2β (elimination half-life of the beta elimination phase), 2 mg/kg single IV bolus, male SD rats, n = 4, mean ± SD): 14.8 ± 0.53 h | Vd ([3]; 2 mg/kg, Vss (volume of distribution at steady state), 2 mg/kg single IV bolus, male SD rats, n = 4, mean ± SD): 24.3 ± 1.28 L/kg | AUC(0-inf) ([3]; 5 mg/kg): 1960 ± 400 ng·h/mL | C0 ([3]; 5 mg/kg): 3240 ± 440 ng/mL | clearance ([3]; 5 mg/kg, Cl (total clearance), 5 mg/kg single IV bolus, male SD rats, n = 3, mean ± SD): 43.7 mL/min/kg | half-life ([3]; 5 mg/kg, T1/2α (half-life of distributional phase), 5 mg/kg single IV bolus, male SD rats, n = 3, mean ± SD): 0.17 ± 0.03 h | half-life ([3]; 5 mg/kg, T1/2β (elimination half-life of the beta elimination phase), 5 mg/kg single IV bolus, male SD rats, n = 3, mean ± SD): 10 ± 4.6 h | Vd ([3]; 5 mg/kg, Vss (volume of distribution at steady state), 5 mg/kg single IV bolus, male SD rats, n = 3, mean ± SD): 23.2 ± 11.5 L/kg | AUC(0-inf) ([3]; 10 mg/kg): 4830 ± 740 ng·h/mL | C0 ([3]; 10 mg/kg): 5270 ± 1430 ng/mL | clearance ([3]; 10 mg/kg, Cl (total clearance), 10 mg/kg single IV bolus, male SD rats, n = 4, mean ± SD): 35.2 mL/min/kg | clearance ([3]; 10 mg/kg, Estimated total plasma clearance, across the 3 groups (2, 5 and 10 mg/kg IV bolus), male SD rats): ≤ 43.7 mL/min/kg | Vd ([3]; 10 mg/kg, Steady state volume of distribution, across the 3 groups (2, 5 and 10 mg/kg IV bolus), male SD rats): ≤ 25.3 L/kg | half-life ([3]; 10 mg/kg, T1/2α (half-life of distributional phase), 10 mg/kg single IV bolus, male SD rats, n = 4, mean ± SD): 0.25 ± 0.09 h | half-life ([3]; 10 mg/kg, T1/2β (elimination half-life of the beta elimination phase), 10 mg/kg single IV bolus, male SD rats, n = 4, mean ± SD): 13.4 ± 3.59 h | Vd ([3]; 10 mg/kg, Vss (volume of distribution at steady state), 10 mg/kg single IV bolus, male SD rats, n = 4, mean ± SD): 27.3 ± 11.6 L/kg | Stability at room temperature [4]: stable for up to 6 hours | Potency against replicating Mtb [5]: great potency | Inhibition of MtMetAP1a [6]: potent and selective inhibitor | recovery at 2.5 ng/mL [7, 12]: 104 ± 4.72% | recovery at 400 ng/mL [7, 12]: 95.9 ± 1.89% | recovery at 800 ng/mL [7, 12]: 96.8 ± 1.25% | recovery at 14 days ([7]; Sprague Dawley, rat, Long-term stability, mean recovery ± SD): ≤ 91.3% | recovery ([7]; Sprague Dawley, rat, Mean recovery after three freeze-thaw cycles): > 95.9% | recovery at 2 h [7, 13]: 97.8 ± 1.11% | recovery at 4 h [7, 13]: 97.1 ± 5.42% | recovery at 6 h [7, 13]: 95.5 ± 6.69% | recovery at 2 h [7, 14]: 95.9 ± 1.87% | recovery at 4 h [7, 14]: 94.7 ± 4.2% | recovery at 6 h [7, 14]: 97.3 ± 5.55% | recovery at 2 h [7, 15]: 91.6 ± 4.06% | recovery at 4 h [7, 15]: 95.1 ± 3.24% | recovery at 6 h [7, 15]: 93.7 ± 1.17% | Stability at room temperature ([7]; rat plasma samples, room temperature): stable for up to 6 hours | Selectivity for both MtMetAPs over human MetAPs [8]: great selectivity

— PMC6163080 (Journal of chromatography. B, Analytical technologies in …, 2018)
